Assay: refractive index (Na D-line) (dimensionless); xn = mol fraction of the nth substance listed
Conditions: 101 kPa, Liquid, Standard Abbe refractometry

CC(=O)[O-].CCn1cc[n+](C)c1 [1-ethyl-3-methylimidazolium acetate] + CC(C)O
refractive index
Conditions | x1 = 0.1 | x1 = 0.2 | x1 = 0.3 | x1 = 0.4 | x1 = 0.5001 | x1 = 0.5998 | x1 = 0.7 | x1 = 0.7994 | x1 = 0.9 | x1 = 1
288.15 K | 1.40475 | – | 1.43991 | 1.45344 | 1.4651 | 1.47535 | 1.48406 | 1.4912 | 1.49776 | 1.50285
298.15 K | 1.40107 | – | 1.43669 | 1.45075 | 1.46242 | 1.47243 | 1.48131 | 1.48861 | 1.49526 | 1.50069
308.15 K | 1.39762 | 1.42276 | 1.4336 | 1.4475 | – | 1.46954 | 1.4784 | 1.48593 | 1.49257 | 1.49803
318.15 K | 1.39423 | 1.41947 | 1.43066 | 1.44471 | 1.45641 | 1.46689 | 1.47561 | 1.48324 | 1.48986 | 1.49527
328.15 K | 1.39112 | 1.41637 | 1.42763 | 1.44229 | 1.45352 | 1.46489 | 1.47293 | 1.48046 | 1.48714 | 1.49266
338.15 K | 1.38677 | 1.41309 | 1.42464 | 1.43908 | 1.45107 | 1.45943 | 1.47054 | 1.47775 | 1.48466 | 1.48995

CC(=O)[O-].CCn1cc[n+](C)c1 [1-ethyl-3-methylimidazolium acetate] + CCCO
refractive index
Conditions | x1 = 0.1017 | x1 = 0.2004 | x1 = 0.3001 | x1 = 0.3998 | x1 = 0.4997 | x1 = 0.5996 | x1 = 0.6998 | x1 = 0.8002 | x1 = 0.8991 | x1 = 1
288.15 K | 1.41146 | 1.42938 | 1.44451 | 1.45711 | 1.46775 | 1.47687 | 1.485 | 1.49189 | 1.49712 | 1.50285
298.15 K | 1.40825 | 1.42622 | 1.44134 | 1.45401 | 1.46473 | 1.47411 | 1.48219 | 1.48919 | 1.49506 | 1.50069
308.15 K | 1.40453 | 1.42291 | 1.43827 | 1.45119 | 1.46189 | 1.47127 | 1.47942 | 1.48632 | 1.49221 | 1.49803
318.15 K | 1.40109 | 1.41973 | 1.43523 | 1.44803 | 1.45888 | 1.4683 | 1.47661 | 1.48365 | 1.48899 | 1.49527
328.15 K | 1.39753 | 1.41631 | 1.43208 | 1.44542 | 1.45593 | 1.4657 | 1.47372 | 1.48089 | 1.48673 | 1.49266
338.15 K | 1.39391 | 1.41301 | 1.4291 | 1.44211 | 1.45308 | 1.46267 | 1.4711 | 1.47818 | 1.48324 | 1.48995
348.15 K | 1.39115 | 1.41033 | 1.42601 | 1.43912 | 1.45026 | 1.45993 | 1.46823 | 1.47546 | 1.4803 | 1.48721
